Experimental findings from publication PMC7719179, “Small molecule inhibition of Dynamin-dependent endocytosis targets multiple niche signals and impairs leukemia stem cells” (Nature Communications, 2020) are described below.

In series [1] the test system is pre-LSC activity of Lmo2^Tg DN3a thymocytes. The series can be described thus: Transplantation of in vitro treated Lmo2^Tg DN3a thymocytes (fold expansion, engraftment). As to conditions: thymus of recipients 6 weeks post-transplantation of Lmo2^Tg DN3a thymocytes treated in vitro (Dynole 34-2 0.2 μM, Ruxolitinib 0.2 μM, DAPT 0.1 μM); individual recipients. The class given is in vivo, mouse. How it is done:
Single-cell suspension of murine thymus cells were intravenously injected into sublethally irradiated (650 Rads) isogenic Ly5.1 (Cd45.1) mice. Fold expansion was calculated by dividing the absolute output number of donor-derived DN3a cells harvested at the experimental endpoint by the respective number of DN3a thymocytes injected in each recipient. Limiting dilution transplantations were performed as described, by injecting various doses (10^1 to 10^6) of thymocytes per recipient, and mice were scored positive when T-cell lineage reconstitution assessed 6 weeks after transplantation was >1%. Leukemia-propagating cell frequency was calculated by applying Poisson statistics using the ELDA: Extreme Limiting Dilution Analysis software (Walter and Eliza Hall Institute Bioinformatics, Parkville VIC, Australia)[96]. Limiting dilution transplantations were performed independently from any other transplantation assays, using thymocytes from three different Lmo2^Tg mice for each cohort. Kaplan–Meier survival and statistical analysis were performed using GraphPad Prism. 6.0 software (GraphPad Software Inc, San Diego CA, USA).

The subject of series [2] is DN3a thymocytes. Put plainly: Relative viability and LC50 on DN3a thymocytes of WT, Lmo2^Tg, Lmo2^Tg;STAT5-CA^Tg and Lmo2^Tg;N1-ICD^Tg mice, 48 h. Particulars: for viability at 40 µM / viability at 200 µM: Mus musculus, Thymocyte. How it is done:
Pre-leukemic and leukemic thymocytes were purified by flow cytometry and co-cultured on GFP-positive OP9 and OP9-DL1 stromal cell lines, as described previously. Thymocytes were co-cultured in reconstituted alpha-MEM medium (#12318, Gibco, Grand Island NY, USA) supplemented with 20% FCS (#12318), HEPES 10 mM (#15630-080), sodium pyruvate 1 mM (#11360-070), β-mercaptoethanol 55 μM (#21985-023), Glutamax 2 mM (#15750-060), 1% Penicillin/Streptomycin (#15140-122), 5 ng/mL rmFLT-3 ligand (#250-31 L, Pepro Tech), 5 ng/mL rmIL-7 (#217-17, Pepro Tech) and 25 ng/mL rmSCF (#250-03, Pepro Tech). After 48 h of co-culture, thymocytes were counted and analysed by FACS. […]
viability of wild-type (WT), Lmo2 Tg, Lmo2Tg;STAT5-CA Tg and Lmo2Tg;N1-ICD Tg DN3a thymocytes […]
normalized to cells treated with vehicle (%DMSO). Mean ± SEM of n=4 biological replicates. b, […]
thymocytes from 6-week old wild-type (WT), Lmo2 Tg, Lmo2Tg;STAT5-CATg and Lmo2Tg ;N1-ICD Tg mice. Mean ± SD of n=4 biological replicates are shown. 2-way ANOVA with Tukey’s correction test; […]
(1 picture or pasted object on this page, not shown here)
*P<0.05, *** P<0.001 compared to WT; #P<0.05, ##P<0.01, ###P<0.001 compared to L mo2Tg. c, Levels of pStat5 (left) after stimulation with IL-7 , as well as Hes1 expression (right) after co-culture on OP9- […]
(0.2 µM), Ruxolitinib (0.2 µM) and DAPT (0.1 µM). Unstimulated cells were used as negative controls (dashed line). Student’s t -test, ** P<0.01, *** P<0.001 compared to unstimulated cells. MFI ± SEM, 1-way ANOVA with Tukey’s correction test; **P<0.01, *** P<0.001 compared to vehicle. d, Clonogenic assay of normal murine hematopoietic stem and progenitor cells (HSPCs) cultured in the presence […]
± SD, Student’s t -test ( n=4) **P<0.01 compared to vehicle. e, Relative viability of wild-type (WT), […]
2 (0.2 µM), Ruxolitinib (0.2 µM) and DAPT (0.1 µM) for 48 hours. Viability was normalized to cells treated with vehicle (%DMSO, which was reported as 100). Mean ± SEM, 2-way ANOVA with Tukey’s correction test, **P<0.01, *** P<0.001 compared to vehicle.

For series [3], the system named is pStat5, Hes1, p-Erk, p-p38, p-S6, p-Akt in Lmo2^Tg DN3a cells. Put plainly: Growth factor-mediated signalling effectors in co-cultured Lmo2^Tg DN3a cells (flow cytometry). The class given is cell-based, mouse. As for the experimental part: Phosphoflow analysis was performed as previously described. Briefly, 2 × 10^6 cells stained for surface markers were subsequently resuspended into PBS 1× + 4% v/v paraformaldehyde and incubated for 10 min at 4 °C for fixation. Fixed cells were washed twice using PBS 1×, then resuspended in pre-chilled at −20 °C Perm Buffer III (BD Pharmingen) and incubated 30 min at 4 °C for permeabilization. Cells were washed twice using PBS 1× and incubated overnight at 4 °C in PBS 1× + 2% v/v fetal calf serum (FCS) with Cell Signalling purified antibodies (Genesearch Pty Ltd, Arundel QLD, Australia) against pSTAT5 (Tyr694; #9359), phospho-p38 MAPK (Thr180/Tyr182; #4511), phospho-p44/42 (Erk1/2; #9102), phospho-S6 (Ser235/236; #4856) and phospho-Akt (Ser473; #9271) or isotype control. For intracellular HES1 detection, cells stained for surface markers were subsequently fixed and permeabilized using the BD Cytofix/Cytoperm^TM Kit and incubated overnight at 4 °C in PBS 1× + 2% v/v FCS with a purified antibody against HES1 (D6PU; #11988, Cell Signalling) or isotype control. After staining with primary antibodies for phosphoflow or intracellular detection, cells were incubated in permeabilization buffer with donkey Alexa Fluor 488-conjugated anti-rabbit secondary antibody (A-21206, lot #1910751, Molecular Probes, Invitrogen) or goat Alexa Fluor 546-conjugated anti-rabbit secondary antibody (A-11035, lot #1904467, Molecular Probes, Invitrogen) for 1 h on ice, and washed twice in PBS 1×. Fluorescence-activated cell sorting (FACS) analysis was performed using LSRII and LSR Fortessa cytometers, following the gating strategies described in Supplementary Fig. 11. Cell sorting was performed with a FACSAria or BD Influx.

Setting [4] is: Supplementary Figure 2c, unstimulated and vehicle controls in the same table.
[5] abbreviates: read-out: Relative % viable cells, Lmo2Tg;STAT5-CATg DN3a thymocytes, dose 0.2 mM (so in the source).
[6] abbreviates: Lmo2^Tg DN3a cells co-cultured on OP9-DL1 with cytokines, individual animals.

SMILES strings stand for the structures. Several values for one entry are separate records, joined by “and”; a condition that tells them apart may be missing. Identical values can stand only once. Like-named read-outs stand apart in the source and are kept apart here.

Turning to `C[C@H](NC(=O)Cc1cc(F)cc(F)c1)C(=O)N[C@H](C(=O)OC(C)(C)C)c1ccccc1` [DAPT, N-[N-(3,5-Difluorophenacetyl)-L-alanyl]-S-phenylglycine t-butyl ester], the “Fold expansion DN3a cells” value in series [1] is 0.05 fold and 0.01 fold and 0.07 fold and 2.41 fold and 0.20 fold and 11.64 fold. Further, in series [2] (LC50 comparison, 48 h), the “fold resistance of Lmo2^Tg;N1-ICD^Tg DN3a cells vs Lmo2^Tg thymocytes” value stood at 9 fold. Also, the “Survival (% DMSO)” value was 17.19 % DMSO and 25.07 % DMSO and 13.99 % DMSO in series [2] (Lmo2Tg); 55.35 % DMSO and 68.13 % DMSO and 61.12 % DMSO and 65.99 % DMSO in series [2] (Lmo2Tg;Notch1Tg); 52.45 % DMSO and 51.11 % DMSO and 34.78 % DMSO in series [2] (Lmo2Tg;STAT5-CATg). Besides, the “Relative % viable cells” value in series [2] (Lmo2Tg DN3a thymocytes, dose 0.02 mM (so in the source)) was 79.43% and 55.29% and 67.53%; in series [2] (Lmo2Tg DN3a thymocytes, dose 0.1 mM (so in the source)) it was 25.07% and 13.99% and 17.19%; in series [2] (Lmo2Tg DN3a thymocytes, dose 0.5 mM (so in the source)) it was 5.42% and 10.32% and 11.23%; in series [2] (Lmo2Tg DN3a thymocytes, dose 2.5 mM (so in the source)), 5.22% and 9.91% and 8.68%; in series [2] (Lmo2Tg DN3a thymocytes, dose 12.5 mM (so in the source)), 5.76% and 9.27% and 6.48%; in series [2] (Lmo2Tg;Notch1Tg DN3a thymocytes, dose 0.02 mM (so in the source)) it was 68.73% and 83.56% and 62.24% and 87.12%. In addition, the “Relative % viable cells” value in series [2] (Lmo2Tg;Notch1Tg DN3a thymocytes, dose 0.1 mM (so in the source)) is 55.35% and 68.13% and 61.12% and 65.99%; in series [2] (Lmo2Tg;Notch1Tg DN3a thymocytes, dose 0.5 mM (so in the source)) it was 52.22% and 56.33% and 58%; in series [2] (Lmo2Tg;STAT5-CATg DN3a thymocytes, dose 0.02 mM (so in the source)), 76.45% and 84.74% and 59.85%; in series [2] (Lmo2Tg;STAT5-CATg DN3a thymocytes, dose 0.1 mM (so in the source)), 52.45% and 51.11% and 34.78%; in series [2] (Lmo2Tg;STAT5-CATg DN3a thymocytes, dose 0.5 mM (so in the source)) it was 38.67% and 42.63% and 42.16%; in series [2] (Lmo2Tg;STAT5-CATg DN3a thymocytes, dose 2.5 mM (so in the source)) it was 27.14% and 38.85% and 21.86%. Further, the “Relative % viable cells” value in series [2] (Lmo2Tg;STAT5-CATg DN3a thymocytes, dose 12.5 mM (so in the source)) was 19.43% and 16.58% and 21.18%. For the same compound, the “Hes1 (MFI)” value in series [3] (setting [4]) is 1314 MFI and 1222 MFI and 1307 MFI.
For the compound `N#CC[C@H](C1CCCC1)n1cc(-c2ncnc3[nH]ccc23)cn1` [Ruxolitinib], the “Fold expansion DN3a cells” value in series [1] is 0.06 fold and 0.01 fold and 5.29 fold and 8.54 fold and 22.76 fold and 8.51 fold. Further, in series [2] (LC50 comparison, 48 h), the “fold resistance of Lmo2^Tg;STAT5-CA^Tg DN3a thymocytes vs Lmo2^Tg DN3a cells” value came out at 5.3 fold. For the same compound, the “Survival (% DMSO)” value in series [2] (Lmo2Tg;STAT5-CATg) was 69.32 % DMSO and 78.95 % DMSO and 73.54 % DMSO; in series [2] (WT), 39.65 % DMSO and 53.08 % DMSO and 37.17 % DMSO. Besides, the viability at 40 µM in series [2] (read-out: Relative % viable cells, Lmo2Tg DN3a thymocytes, dose 0.04 mM (so in the source)) is 88.8%; in series [2] (read-out: Relative % viable cells, Lmo2Tg;STAT5-CATg DN3a thymocytes, dose 0.04 mM (so in the source)), 95.5%. Moreover, the viability at 200 µM in series [2] (setting [5]) was 69.3%. Also, the “Hes1 (MFI)” value in series [3] (setting [4]) is 1340 MFI and 1445 MFI and 1491 MFI.
`CCCCCCCCNC(=O)C(C#N)=Cc1cn(CCCN(C)C)c2ccccc12` [Dynole 34-2, 2-Cyano-N-octyl-3-(1-(3-dimethylaminopropyl)-1H-indol-3-yl)-acrylamide]: the “Fold expansion DN3a cells” value in series [1] was 0.05 fold and 0.01 fold and 3.00 fold and 6.41 fold and 5.91 fold and 0.19 fold and 17.69 fold. In addition, the “relative resistance conferred by mutations downstream of DDE (STAT5-CA^Tg, N1-ICD^Tg) vs Lmo2^Tg DN3a” value in series [2] (LC50 comparison, 48 h) is 3.4 fold. In addition, the “Relative % viable cells” value was 53.38% and 35.26% and 57.31% and 29.03% in series [2] (Lmo2Tg DN3a thymocytes, dose 0.04 mM (so in the source)); 0% in series [2] (Lmo2Tg DN3a thymocytes, dose 25 mM (so in the source)); 27.05% and 30.53% and 26.36% in series [2] (Lmo2Tg;Notch1Tg DN3a thymocytes, dose 1 mM (so in the source)); 60% and 110.87% and 62.94% and 65.19% in series [2] (Lmo2Tg;STAT5-CATg DN3a thymocytes, dose 0.04 mM (so in the source)); 40.03% and 50.05% and 55.36% in series [2] (Lmo2Tg;STAT5-CATg DN3a thymocytes, dose 0.2 mM (so in the source)); 0% and 5.23% and 8.65% in series [2] (Lmo2Tg;STAT5-CATg DN3a thymocytes, dose 25 mM (so in the source)). Also, the “Relative % viable cells” value in series [2] (WT DN3a thymocytes, dose 0.04 mM (so in the source)) was 81.18% and 50% and 68.95% and 71.06% and 67.17%; in series [2] (WT DN3a thymocytes, dose 5 mM (so in the source)) it was 5.59% and 1.77% and 8.44% and 6.33% and 6.38%; in series [2] (WT DN3a thymocytes, dose 25 mM (so in the source)) it was 0% and 8.83%. Moreover, the viability at 200 µM in series [2] (setting [5]) came to 37.5%. For the same compound, the “sensitivity of wild-type (WT) DN3a thymocytes relative to pre-LSCs” value in series [2] (WT vs Lmo2^Tg DN3a, result in words) is “fivefold less sensitive”. Moreover, the “Hes1 (MFI)” value is 5911 MFI and 6176 MFI and 5994 MFI and 6141 MFI in series [3] (setting [6]); 1218 MFI and 1199 MFI and 1165 MFI in series [3] (setting [4]). In addition, the “p-Akt (MFI)” value in series [3] (setting [6]) was 1455 MFI and 2044 MFI and 1472 MFI and 1916 MFI. Besides, in series [3] (setting [6]), the “p-Erk (MFI)” value was 2822 MFI and 3661 MFI and 3448 MFI and 2830 MFI. Besides, in series [3] (setting [6]), the “p-S6 (MFI)” value is 4904 MFI and 4987 MFI and 5062 MFI and 5235 MFI. In addition, the “p-p38 (MFI)” value in series [3] (setting [6]) was 4351 MFI and 3539 MFI and 4397 MFI and 3757 MFI. The “pStat5 (MFI)” value in series [3] (setting [6]) is 2745 MFI and 2767 MFI and 2938 MFI and 3210 MFI.
